Source: US20090306133A1, “New Acetyl Coenzyme A Carboxylase (ACC) Inhibitors And Uses In Treatments Of Obesity And Diabetes Mellitus - 087” (ASTRAZENECA AB, priority 2007, published 2009)

What was measured:
[1] = target: Human recombinant Acetyl-CoA Carboxylase 2 (ACC2) (Homo sapiens, UniProt O00763); assay: Assay Y: ACC2 inhibition, inorganic phosphate (Malachite Green); type: biochemical; settings: Assay Y: room temperature, 3 hr, 15 min preincubation
Description: (§1) Preincubation of 6 μL enzyme together with 0.3 μL compound for 15 min was done before the reaction was initiated by the addition of 4 μL substrate. […] After 3 hr the reaction was stopped by addition of 60 μL of water followed by 30 μL Malachite Green solution. The Malachite Green solution was prepared by mixing 16.4 mL ammonium molybdate solution (7.5%), 1.64 mL Tween (11%) with 82 mL Malachite Green/H2SO4-solution (0.7 g Malachite Green to 1000 mL of 10% (v/v) H2SO4). Plates were left for 10 min at room temperature before reading the absorbance at 670 nm. All compounds were tested in triplicate at 10 different concentrations. Control compound (0, 50 and 100% effect) was included on each plate. […] An IC50 value was derived by non-linear regression curve fitting using the following equation: […]))) where A is the non-specific binding, B is the total binding, C is the IC50 and D is the slope. Saturation binding Kd and Bmax were derived using the equation y=((B1 max*x)/(Kd+x)).

[2] = target: Human recombinant Acetyl-CoA Carboxylase 1 (ACC1) (Homo sapiens, UniProt Q13085); assay: Assay Y: ACC1 inhibition, inorganic phosphate (Malachite Green); type: biochemical; settings: Assay Y: room temperature, 3 hr, 15 min preincubation
Description: as §1

Chain of Human recombinant Acetyl-CoA Carboxylase 2 (ACC2) (O00763 whole entry): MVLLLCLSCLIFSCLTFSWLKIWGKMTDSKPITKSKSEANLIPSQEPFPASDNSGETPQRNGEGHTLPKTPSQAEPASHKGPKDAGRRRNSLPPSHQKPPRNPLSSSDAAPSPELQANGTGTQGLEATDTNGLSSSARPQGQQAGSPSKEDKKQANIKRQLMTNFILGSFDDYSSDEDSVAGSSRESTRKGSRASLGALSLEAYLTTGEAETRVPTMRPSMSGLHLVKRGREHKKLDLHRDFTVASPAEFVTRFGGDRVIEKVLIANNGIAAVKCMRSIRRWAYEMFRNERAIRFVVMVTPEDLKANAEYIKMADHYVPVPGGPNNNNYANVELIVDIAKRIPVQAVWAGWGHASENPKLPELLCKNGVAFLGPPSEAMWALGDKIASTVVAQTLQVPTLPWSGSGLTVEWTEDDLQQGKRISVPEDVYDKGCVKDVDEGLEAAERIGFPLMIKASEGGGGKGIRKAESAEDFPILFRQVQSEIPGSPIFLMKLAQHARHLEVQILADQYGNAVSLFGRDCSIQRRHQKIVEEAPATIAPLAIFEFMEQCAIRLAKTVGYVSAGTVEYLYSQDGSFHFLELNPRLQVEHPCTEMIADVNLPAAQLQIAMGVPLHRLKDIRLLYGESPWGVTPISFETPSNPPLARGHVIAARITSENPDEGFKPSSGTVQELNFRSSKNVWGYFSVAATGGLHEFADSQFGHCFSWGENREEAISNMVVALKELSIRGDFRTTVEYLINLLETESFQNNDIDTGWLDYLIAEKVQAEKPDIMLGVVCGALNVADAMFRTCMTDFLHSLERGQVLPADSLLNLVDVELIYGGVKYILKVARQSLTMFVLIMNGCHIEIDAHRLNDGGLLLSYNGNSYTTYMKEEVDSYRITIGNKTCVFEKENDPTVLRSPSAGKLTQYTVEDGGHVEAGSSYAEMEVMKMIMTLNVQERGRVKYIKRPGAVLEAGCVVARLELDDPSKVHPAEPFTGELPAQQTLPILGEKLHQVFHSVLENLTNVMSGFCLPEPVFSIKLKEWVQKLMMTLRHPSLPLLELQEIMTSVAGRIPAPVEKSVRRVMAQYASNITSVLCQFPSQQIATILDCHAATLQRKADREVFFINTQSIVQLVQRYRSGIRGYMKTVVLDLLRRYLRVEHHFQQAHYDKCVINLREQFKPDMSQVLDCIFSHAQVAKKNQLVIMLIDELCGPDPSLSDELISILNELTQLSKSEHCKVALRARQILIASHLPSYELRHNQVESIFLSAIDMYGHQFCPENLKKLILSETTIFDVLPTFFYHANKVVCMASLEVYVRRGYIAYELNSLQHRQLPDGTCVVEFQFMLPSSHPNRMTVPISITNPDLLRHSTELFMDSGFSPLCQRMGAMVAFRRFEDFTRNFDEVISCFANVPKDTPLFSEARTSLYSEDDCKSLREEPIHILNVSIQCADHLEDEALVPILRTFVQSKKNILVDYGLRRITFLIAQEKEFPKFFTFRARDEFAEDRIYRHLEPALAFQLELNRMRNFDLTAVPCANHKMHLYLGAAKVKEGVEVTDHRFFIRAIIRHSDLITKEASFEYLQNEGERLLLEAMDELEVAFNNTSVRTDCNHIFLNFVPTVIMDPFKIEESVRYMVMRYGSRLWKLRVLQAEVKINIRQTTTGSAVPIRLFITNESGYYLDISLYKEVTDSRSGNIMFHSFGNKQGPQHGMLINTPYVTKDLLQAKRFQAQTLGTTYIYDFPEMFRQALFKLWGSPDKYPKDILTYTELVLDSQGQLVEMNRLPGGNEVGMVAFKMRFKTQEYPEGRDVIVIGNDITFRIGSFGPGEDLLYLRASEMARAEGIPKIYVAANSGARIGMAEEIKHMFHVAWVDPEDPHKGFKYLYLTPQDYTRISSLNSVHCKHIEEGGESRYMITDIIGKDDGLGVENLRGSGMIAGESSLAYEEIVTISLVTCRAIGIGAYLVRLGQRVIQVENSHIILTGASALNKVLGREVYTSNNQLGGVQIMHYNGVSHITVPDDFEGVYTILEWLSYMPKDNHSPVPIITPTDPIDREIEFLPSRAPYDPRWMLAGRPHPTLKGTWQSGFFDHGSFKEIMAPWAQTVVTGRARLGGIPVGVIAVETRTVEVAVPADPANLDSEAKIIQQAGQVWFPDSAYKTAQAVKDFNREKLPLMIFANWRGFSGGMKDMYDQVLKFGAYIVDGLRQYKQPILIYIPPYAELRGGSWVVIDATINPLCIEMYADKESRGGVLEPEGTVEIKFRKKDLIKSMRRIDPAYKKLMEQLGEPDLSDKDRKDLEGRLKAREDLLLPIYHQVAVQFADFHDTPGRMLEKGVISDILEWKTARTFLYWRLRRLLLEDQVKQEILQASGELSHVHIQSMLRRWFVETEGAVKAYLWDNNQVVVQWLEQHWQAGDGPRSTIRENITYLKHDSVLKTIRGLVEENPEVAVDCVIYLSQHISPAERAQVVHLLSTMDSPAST

| Compound | IC50 [1] | IC50 [2] |
| --- | --- | --- |
| CCOc1ccc(-c2cc(C(=O)NC[C@H]3CC[C@H](CNC(=O)OC(C)(C)C)CC3)c3ccccc3n2)cc1 [Example 4, tert-Butyl ({trans-4-[({[2-(4-ethoxyphenyl)quinolin-4-yl]carbonyl}amino)methyl]-cyclohexyl}methyl)carbamate] | 390 nM | 1330 nM |
| CC(C)(C)OC(=O)NC[C@H]1CC[C@H](CNS(=O)(=O)c2ccc3ncsc3c2)CC1 [Example 78, tert-Butyl [(trans-4-{[(1,3-benzothiazol-6-ylsulfonyl)amino]methyl}cyclohexyl)-methyl]carbamate] | 3140 nM | 6550 nM |
| CC(C)(C)OC(=O)NC[C@H]1CC[C@H](CNS(=O)(=O)c2ccc(Br)c(Br)c2)CC1 [Example 64, tert-Butyl {[trans-4-({[(3,4-dibromophenyl)sulfonyl]amino}methyl)cyclohexyl]-methyl}carbamate] | 3720 nM | > 20000 nM |
| CSc1ccc(-c2cc(C(=O)NC[C@H]3CC[C@H](CNC(=O)OC(C)(C)C)CC3)c3ccccc3n2)cc1 [Example 24, tert-Butyl [(trans-4-{[({2-[4-(methylthio)phenyl]quinolin-4-yl}carbonyl)amino]-methyl}cyclohexyl)methyl]carbamate] | 490 nM | 1350 nM |
| CCOC(=O)NC[C@H]1CC[C@H](CNC(=O)c2cc(-c3ccc(N4CCN(C)CC4)nc3)nc3ccccc23)CC1 [Example 119, Ethyl[(trans-4-{[({2-[6-(4-methylpiperazin-1-yl)pyridin-3-yl]quinolin-4-yl}carbonyl)amino]methyl}cyclohexyl)methyl]carbamate] | 720 nM | 2260 nM |
| CCOC(=O)NC[C@H]1CC[C@H](CNC(=O)c2cc(-c3ccncc3)nc3ccccc23)CC1 [Example 60, Ethyl {[trans-4-({[(2-pyridin-4-ylquinolin-4-yl)carbonyl]amino}methyl)cyclo-hexyl]methyl}carbamate] | 1820 nM | 3170 nM |
| CC(C)(C)OC(=O)NC[C@H]1CC[C@H](CNC(=O)c2cc(-c3ccc(C(=O)O)cc3)nc3ccccc23)CC1 [Example 93, 4-(4-{[(trans-4-{[(tert-Butoxycarbonyl)amino]methyl}cyclohexyl)methyl]carbamoyl}-quinolin-2-yl)benzoic acid] | 170 nM | 1850 nM |
| CC(C)(C)OC(=O)NC[C@H]1CC[C@H](CNS(=O)(=O)c2ccc3c(c2)OCCO3)CC1 [Example 69, tert-Butyl [(trans-4-{[(2,3-dihydro-1,4-benzodioxin-6-ylsulfonyl)amino]methyl}cyclo-hexyl)methyl]carbamate] | 4760 nM | – |

Now from value to compound:

| IC50 [1] | IC50 [2] | Compound |
| --- | --- | --- |
| 5030 nM | > 20000 nM | CC(=O)Nc1ccc(S(=O)(=O)NC[C@H]2CC[C@H](CNC(=O)OC(C)(C)C)CC2)cc1 [Example 73, tert-Butyl {[trans-4-({[(4-acetamidophenyl)sulfonyl]amino}methyl)cyclohexyl]-methyl}carbamate] |
| 140 nM | 2220 nM | CN(C)CCN1CCN(c2cc(C(=O)NC[C@H]3CC[C@H](CNC(=O)OC(C)(C)C)CC3)c3ccccc3n2)CC1 [Example 186, tert-Butyl{[trans-4-({[(2-{4-[2-(dimethylamino)ethyl]-piperazin-1-yl}quinolin-4-yl)carbonyl]amino}-methyl)cyclohexyl]-methyl}carbamate] |
| 7660 nM | 8230 nM | CC(C)(C)OC(=O)NC[C@H]1CC[C@H](CNC(=O)c2ccnc(-c3ccc(CN)cc3)c2)CC1 [Example 52, tert-Butyl ({trans-4-[({2-[4-(aminomethyl)phenyl]isonicotinoyl}amino)methyl]cyclo-hexyl}methyl)carbamate] |
| 100 nM | 780 nM | CC(C)(C)OC(=O)NC[C@H]1CC[C@H](CNC(=O)c2cc(-c3cccc(CNC(N)=O)c3)nc3ccccc23)CC1 [Example 99, tert-Butyl {[trans-4-({[(2-{3-[(carbamoylamino)methyl]phenyl}quinolin-4-yl)-carbonyl]amino}methyl)cyclohexyl]methyl}carbamate] |
